These molecules were tested on HT-29 cells (assay: Necrosis assay (TNF-α/Smac mimetic/z-VAD induced necrosis, cell viability by ATP level)). Details: HT-29, TNF-α + Smac mimetic + z-VAD, 24 hrs, ATP level; values given as ranges in nM; read-out: EC50 (inhibition of necrosis in HT-29 cells).
Type: cell-based
Protocol: HT-29 cells were cultured in McCoy's 5 A culture medium (Invitrogen). On day one, HT-29 cells were plated in 96-well assay plates at density of 2,500-3,500 cells per well. On day two, necrosis were induced by adding 20 ng/ml TNF-α (T), 100 nM Smac mimetic (S), and […] z-VAD (Z). At the same time, […] compound from a chemical library of ˜200,000 compounds was delivered into each well. After 24 hrs treatment, cell viability was determined by measuring ATP level using the CellTiter-Glo Luminescent Cell Viability Assay kit. A CellTiter-Glo Assay (Promega) was performed according to the manufacturer's instructions Luminescence was recorded with a PerkinElmer EnSpire Multimode Plate Reader. Survived cells were normalized to those cells treated with DMSO. Nec-1 was used as a positive control for screening necrosis inhibitors. Data are represented as mean±standard deviation of duplicates
Dose-dependent inhibition of necrosis by the compounds in HT-29 cells were determined by measuring ATP levels as described above.

`CC1CCCC(C)N1C(=O)N(C)Cc1cc(F)cc(F)c1F` (stereo not drawn) [Compound 121, N,2,6-trimethyl-N-(2,3,5-trifluorobenzyl)piperidine-1-carboxamide] and `CN(Cc1cc(F)cc(F)c1F)C(=O)C(C)(C)C` [Compound S2, N-methyl-N-(2,3,5-trifluorobenzyl)pivalamide] fall in the same range of EC50: 1 to 1000 nM for the first, 1 to 1000 nM for the second.

`CCC(C)(C)C(=O)N(C)Cc1cc(C)c(C)s1` [Compound 128, N-((4,5-dimethylthiophen-2-yl)methyl)-N,2,2-trimethylbutanamide] and `CCC(C)(C)C(=O)N(C)Cc1cccc(F)c1F` [Compound S8, N-(2,3-difluorobenzyl)-N,2,2-trimethylbutanamide] fall in the same range of EC50: 1 to 1000 nM for the first, 1 to 1000 nM for the second.

`CCC(C)(C)C(=O)N(Cc1ccccc1)OC(C)=O` [Compound S3, N-acetoxy-N-benzyl-2,2-dimethylbutanamide] and `CCC(C)(C)C(=O)N(Cc1ccccc1)OC` [Compound S4, N-benzyl-N-methoxy-2,2-dimethylbutanamide] fall in the same range of EC50: 1 to 1000 nM for the first, 1 to 1000 nM for the second.

`CN(Cc1cc(F)cc(F)c1F)C(=O)C(C)(C)C(C)(F)F` [Compound S5, 3,3-difluoro-N,2,2-trimethyl-N-(2,3,5-trifluorobenzyl)butanamide] and `CC(F)(F)C(C)(C)C(=O)N(O)Cc1ccccc1` [Compound S6, N-benzyl-3,3-difluoro-N-hydroxy-2,2-dimethylbutanamide] fall in the same range of EC50: 1 to 1000 nM for the first, 1 to 1000 nM for the second.

Same assay, conditions: Homo sapiens, HT-29, 24 h, HT-29, TNF-α + Smac mimetic + z-VAD, 24 hrs, ATP level; values given as ranges in uM; read-out: EC50 (inhibition of necrosis in HT-29 cells)

`CCC(C)(C)C(=O)NC(CO)c1ccccc1` (stereo not drawn) [Compound 110, N-(2-hydroxy-1-phenylethyl)-2,2-dimethylbutanamide] and `CCC(C)(C)C(=O)N[C@@H](C(=O)NC)c1ccccc1` [Compound 122, (R)-2,2-dimethyl-N-(2-(methylamino)-2-oxo-1-phenylethyl)butanamide] fall in the same range of EC50: 1000 to 100000 nM for the first, 1000 to 100000 nM for the second.

`CCC(C)(C)C(=O)N(C)C(CO)c1ccccc1` (stereo not drawn) [Compound 111, N-(2-hydroxy-1-phenylethyl)-N,2,2-trimethylbutanamide] and `CCC(C)(C)C(=O)N(O)C(CO)c1ccccc1` (stereo not drawn) [Compound 150] fall in the same range of EC50: 1000 to 100000 nM for the first, 1000 to 100000 nM for the second.

`CCC(C)(C)C(=O)N(C)C(COC)c1ccccc1` (stereo not drawn) [Compound 112, N-(2-methoxy-1-phenylethyl)-N,2,2-trimethylbutanamide] and `CCC(C)(C)C(=O)N(Cc1ccccc1)OC` [Compound 151] fall in the same range of EC50: 1000 to 100000 nM for the first, 1000 to 100000 nM for the second.

`CN(Cc1ccccc1F)C(=O)NC1CCCCC1` [Compound 113, 3-cyclohexyl-1-(2-fluorobenzyl)-1-methylurea] and `CC(C)NC(=O)N(C)Cc1ccccc1F` [Compound 114, 1-(2-fluorobenzyl)-3-isopropyl-1-methylurea] fall in the same range of EC50: 1000 to 100000 nM for the first, 1000 to 100000 nM for the second.

`CCN(Cc1cc(F)cc(F)c1F)C(=O)N(C)C(C)C` [Compound 115, 1-ethyl-3-isopropyl-3-methyl-1-(2,3,5-trifluorobenzyl)urea] and `CC(C)N(C)C(=O)N(C)Cc1cc(F)cc(F)c1F` [Compound 120, isopropyl-1,3-dimethyl-3-(2,3,5-trifluorobenzyl)urea] cannot be ordered by EC50: 1000 to 100000 nM for the first, 1000 to 10000 nM for the second.

`CCC1CCCCN1C(=O)N(C)Cc1cc(F)cc(F)c1F` (stereo not drawn) [Compound 116, 2-ethyl-N-methyl-N-(2,3,5-trifluorobenzyl)piperidine-1-carboxamide] and `CC1CCCCN1C(=O)N(C)Cc1cc(F)cc(F)c1F` (stereo not drawn) [Compound 117, N,2-dimethyl-N-(2,3,5-trifluorobenzyl)piperidine-1-carboxamide] cannot be ordered by EC50: 1000 to 100000 nM for the first, 1000 to 10000 nM for the second.

`CC1CCCN(C(=O)N(C)Cc2cc(F)cc(F)c2F)C1` (stereo not drawn) [Compound 118, N,3-dimethyl-N-(2,3,5-trifluorobenzyl)piperidine-1-carboxamide] and `CC(C)N(C(=O)N(C)Cc1cc(F)cc(F)c1F)C(C)C` [Compound 119, 1,1-diisopropyl-3-methyl-3-(2,3,5-trifluorobenzyl)urea] fall in the same range of EC50: 1000 to 100000 nM for the first, 1000 to 100000 nM for the second.

`CCC(C)(C)C(=O)N[C@@H](C(=O)N(C)C)c1ccccc1` [Compound 123, (R)—N-(2-(dimethylamino)-2-oxo-1-phenylethyl)-2,2-dimethylbutanamide] and `CCC(C)(C)C(=O)N[C@@H](C(=O)NCc1ccccc1)c1ccccc1` [Compound 124, (R)—N-(2-(benzylamino)-2-oxo-1-phenylethyl)-2,2-dimethylbutanamide] fall in the same range of EC50: 1000 to 100000 nM for the first, 1000 to 100000 nM for the second.

`CCC(C)(C)C(=O)N[C@@H](C(=O)NCCc1ccccc1)c1ccccc1` [Compound 125, (R)-2,2-dimethyl-N-(2-oxo-2-(phenethylamino)-1-phenylethyl)butanamide] and `CCC(C)(C)C(=O)N[C@@H](C(=O)NCCOc1ccccc1)c1ccccc1` [Compound 127, (R)-2,2-dimethyl-N-(2-oxo-2-((2-phenoxyethyl)amino)-1-phenylethyl)butanamide] fall in the same range of EC50: 1000 to 100000 nM for the first, 1000 to 100000 nM for the second.

`CCC(C)(C)C(=O)N[C@@H](CC(=O)NCCOc1ccccc1)c1ccccc1` [Compound 126, (S)-2,2-dimethyl-N-(3-oxo-3-((2-phenoxyethyl)amino)-1-phenylpropyl)butanamide] and `CCC(C)(C)C(=O)N(C)[C@@H](CO)c1ccccc1F` [Compound 148] fall in the same range of EC50: 1000 to 100000 nM for the first, 1000 to 100000 nM for the second.

`CN(Cc1cc(F)c(F)c(F)c1)C(=O)c1c(Cl)cccc1Cl` [Compound 129, 2,6-dichloro-N-methyl-N-(3,4,5-trifluorobenzyl)benzamide] and `CCC(C)(C)C(=O)N(Cc1cc(F)c(F)c(F)c1)OC` [Compound 134] fall in the same range of EC50: 1000 to 100000 nM for the first, 1000 to 100000 nM for the second.

`CCC(C)(C)C(=O)N(Cc1ccc(F)cc1)OC` [Compound 130] and `CCC(C)(C)C(=O)N(C)Cc1ccc(F)cc1` [Compound S7, N-(4-fluorobenzyl)-N,2,2-trimethylbutanamide] cannot be ordered by EC50: 1000 to 100000 nM for the first, 1000 to 10000 nM for the second.

`CCC(C)(C)C(=O)N(Cc1ccc(F)cc1F)OC` [Compound 131] and `CCC(C)(C)C(=O)N(Cc1cc(F)cc(F)c1F)OC` [Compound 135] fall in the same range of EC50: 1000 to 100000 nM for the first, 1000 to 100000 nM for the second.

`CCC(C)(C)C(=O)N(Cc1ccc(F)c(F)c1)OC` [Compound 132] and `CCC(C)(C)C(=O)N(Cc1cc(F)c(F)cc1F)OC` [Compound 133] fall in the same range of EC50: 1000 to 100000 nM for the first, 1000 to 100000 nM for the second.

`CCC(C)(C)C(=O)N(O)Cc1cccs1` [Compound 136] and `CCC(C)(C)C(=O)N(O)Cc1ccc(C)s1` [Compound 137] fall in the same range of EC50: 1000 to 100000 nM for the first, 1000 to 100000 nM for the second.

`CCC(C)(C)C(=O)N(O)Cc1sc(C)cc1C` [Compound 138] and `C=CC(C)(C)C(=O)N(O)Cc1sc(C)cc1C` [Compound 146] fall in the same range of EC50: 1000 to 100000 nM for the first, 1000 to 100000 nM for the second.

`CCC(C)(C)C(=O)N(O)CC1CCCC1` [Compound 139] and `CCC(C)(C)C(=O)N(O)CC1CCCCC1` [Compound 141] fall in the same range of EC50: 1000 to 100000 nM for the first, 1000 to 100000 nM for the second.

`CCC(C)(C)C(=O)N(O)CC1=CCCC1` [Compound 140] and `CCC(C)(C)C(=O)N(O)CC1CCCO1` (stereo not drawn) [Compound 142] fall in the same range of EC50: 1000 to 100000 nM for the first, 1000 to 100000 nM for the second.

`CCC(C)(C)C(=O)N(O)Cc1cccn1C` [Compound 143] and `CCC(C)(C)C(=O)N(O)Cc1cn(C)cc1C` [Compound 144] fall in the same range of EC50: 1000 to 100000 nM for the first, 1000 to 100000 nM for the second.

`C=CC(C)(C)C(=O)N(O)Cc1sccc1C` [Compound 145] and `C=CC(C)(C)C(=O)N(C)Cc1ccccc1F` [Compound 147] fall in the same range of EC50: 1000 to 100000 nM for the first, 1000 to 100000 nM for the second.

`CCC(C)(C)C(=O)N(C)[C@@H](CO)c1cc(F)cc(F)c1F` [Compound 149] and `CC(C)(C)C(=O)NCc1cc(F)cc(F)c1F` [Compound S1, N-(2,3,5-trifluorobenzyl)pivalamide] cannot be ordered by EC50: 1000 to 100000 nM for the first, 1000 to 10000 nM for the second.

`CC(F)(F)C(C)(C)C(=O)N(O)Cc1ccc(F)cc1` [Compound S9] showed an EC50 of 1000 to 100000 nM.
